From US20250000842A1, “Formulation of Resiniferatoxin” (Sorrento Therapeutics, Inc., priority 2017, published 2025)

Experiment: Solubility comparison: recovery of RTX by HPLC after ambient and cold (5° C.) storage in various solutions
Format: physicochemical
Conditions: unmodified aqueous solution
Protocol: Independently of the formulations described in Example 1, a group of 12 surfactants was tested to compare the recovery of RTX based on HPLC analysis of samples following ambient and cold (5° C.) storage.

## C=C(C)[C@]12C[C@@H](C)[C@@]34O[C@](Cc5ccccc5)(O[C@@H]1[C@@H]3C=C(COC(=O)Cc1ccc(O)c(OC)c1)C[C@]1(O)C(=O)C(C)=C[C@@H]41)O2 [RTX, resiniferatoxin]
  solubility in water (in words): insolubility in water
